Data published in patent publication US10752616B2, “Bicycloheteroaryl-heteroaryl-benzoic acid compounds as retinoic acid receptor beta (RARβ) agonists” (King's College London, priority 2014, dated 2020).

Key:
Type in all cases: cell-based
[1] = biological target: RARβ (Mus musculus (Mouse), UniProt P22605); assay: Transactivation assay for RARβ (gal4-RAR fusion, pFR-luc reporter, COS-7 cells), Table 2; conditions: COS-7 reporter, mean of three or more determinations, species not stated (method: mouse or human)
Chain of RARβ (P22605 210-444): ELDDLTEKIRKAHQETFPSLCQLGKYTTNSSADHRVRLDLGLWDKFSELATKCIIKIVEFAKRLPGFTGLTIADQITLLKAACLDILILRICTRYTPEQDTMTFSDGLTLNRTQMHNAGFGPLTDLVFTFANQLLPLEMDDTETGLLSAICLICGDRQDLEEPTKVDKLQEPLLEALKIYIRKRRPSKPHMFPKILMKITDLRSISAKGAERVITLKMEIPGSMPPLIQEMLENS
Protocol: (§1) Transcriptional transactivation assays were performed with gal4 fusion receptor constructs, created using each of the RAR ligand binding domains of either mouse or human, co-transfected with the pFR-luc (Stratagene) reporter construct in COS-7 cells.
(§2) Briefly, on day 1, 96 well plates were seeded with 8000 cells per well then left to recover overnight. On day 2, the cells were co-transfected with 100 ng of reporter plasmid and 10 ng of the appropriate receptor plasmid per well using lipofectamine (Invitrogen). On day 3, the lipofectamine containing media was replaced by a DMEM without phenol red, followed by the addition of test compound dissolved in 1 μL of DMSO to each well's 100 μL total volume. Finally, on day 4, the cells were lysed and their luciferase substrate was provided by the BrightGlo™ reagent (Promega), the plates were then read on the MicroBeta TriLux™ (Perkin Elmer).
(§3) Data for test compounds are quoted as EC50 values. Where replicate data has been generated, the data are quoted as the mean EC50 from the separate experiments.
(§4) EC50's values are reported as mean values of three or more determinations.

[2] = biological target: RARα (Mus musculus (Mouse), UniProt P11416); assay: Transactivation assay for RARα (gal4-RAR fusion, pFR-luc reporter, COS-7 cells), Table 2; conditions: for RARα/RARβ ratio: fold-selectivity for RARβ over RARα, >1 = selective for RARβ
Chain of RARα (P11416 183-417): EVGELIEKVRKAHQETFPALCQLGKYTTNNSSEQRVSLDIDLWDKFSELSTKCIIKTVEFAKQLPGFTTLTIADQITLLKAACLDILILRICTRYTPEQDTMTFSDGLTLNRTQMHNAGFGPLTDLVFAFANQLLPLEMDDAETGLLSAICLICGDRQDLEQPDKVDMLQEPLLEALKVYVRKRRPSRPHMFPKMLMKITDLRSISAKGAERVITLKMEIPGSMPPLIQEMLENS
Protocol: as §1, §2, §3, §4

[3] = biological target: RARγ (Mus musculus (Mouse), UniProt P18911); assay: Transactivation assay for RARγ (gal4-RAR fusion, pFR-luc reporter, COS-7 cells), Table 2; conditions: for RARγ/RARβ ratio: fold-selectivity for RARβ over RARγ, >1 = selective for RARβ
Chain of RARγ (P18911 185-419): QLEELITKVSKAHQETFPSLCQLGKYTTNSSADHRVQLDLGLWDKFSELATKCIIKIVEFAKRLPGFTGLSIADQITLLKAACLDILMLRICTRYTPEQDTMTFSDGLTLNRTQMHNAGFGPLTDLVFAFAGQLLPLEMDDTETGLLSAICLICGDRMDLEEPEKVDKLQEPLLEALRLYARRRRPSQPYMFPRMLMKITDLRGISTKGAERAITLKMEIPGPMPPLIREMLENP
Protocol: as §1, §2, §3, §4

[4] = Table 2, COS-7 reporter, mean of three or more determinations, inactive = no agonist action at highest concentration tested

SMILES	EC50 [1]	EC50 [2, 4]	RARα/RARβ ratio [2]	EC50 [3, 4]	RARγ/RARβ ratio [3]	RARα EC50 [2, 4]	RARγ EC50 [3, 4]
Cc1ccc(C)c2oc(-c3nc(-c4ccc(C(=O)O)cc4Br)no3)cc12 [BHBA-003, 3-Bromo-4-(5-(4,7-dimethylbenzofuran-2-yl)-1,2,4-oxadiazol-3-yl)benzoic acid]	0.016 µM	0.16 µM	10	0.036 µM	2	–	–
Cc1ccc(C)c2oc(-c3nc(-c4ccc(C(=O)O)cc4C(F)(F)F)no3)cc12 [BHBA-004, 4-(5-(4,7-Dimethylbenzofuran-2-yl)-1,2,4-oxadiazol-3-yl)-3-(trifluoromethyl)benzoic acid]	0.01 µM	–	–	–	–	inactive	inactive
Cc1ccc(C)c2oc(-c3nc(-c4ccc(C(=O)O)cc4N)no3)cc12 [BHBA-005, 3-Amino-4-(5-(4,7-dimethylbenzofuran-2-yl)-1,2,4-oxadiazol-3-yl)benzoic acid]	0.023 µM	0.13 µM	5	0.055 µM	2	–	–
Cc1cc(-c2noc(-c3cc4c(C)ccc(C)c4o3)n2)ccc1C(=O)O [BHBA-006, 2-Methyl-4-(5-(4,7-dimethylbenzofuran-2-yl)-1,2,4-oxadiazol-3-yl)benzoic acid]	0.014 µM	0.089 µM	6	0.025 µM	2	–	–
Cc1ccc(C)c2oc(-c3nc(-c4ccc(C(=O)O)c(F)c4)no3)cc12 [BHBA-007, 2-Fluoro-4-(5-(4,7-dimethylbenzofuran-2-yl)-1,2,4-oxadiazol-3-yl)benzoic acid]	0.0022 µM	0.016 µM	–	0.0084 µM	–	–	–
Cc1ccc(C)c2c(C)c(-c3nc(-c4ccc(C(=O)O)cc4)no3)oc12 [BHBA-008, 4-(5-(3,4,7-Trimethylbenzofuran-2-yl)-1,2,4-oxadiazol-3-yl)benzoic acid]	0.0019 µM	0.017 µM	–	0.0068 µM	–	–	–
Cc1ccc(C)c2c(C)c(-c3nc(-c4ccc(C(=O)O)cc4Cl)no3)oc12 [BHBA-009, 3-Chloro-4-(5-(3,4,7-trimethylbenzofuran-2-yl)-1,2,4-oxadiazol-3-yl)benzoic acid]	0.0042 µM	0.032 µM	7.6	0.011 µM	2.6	–	–
Cc1ccc(C(C)C)c2cc(-c3nc(-c4ccc(C(=O)O)cc4)no3)oc12 [BHBA-010, 4-(5-(4-Isopropyl-7-methylbenzofuran-2-yl)-1,2,4-oxadazol-3-yl)benzoic acid]	0.0029 µM	0.025 µM	8	0.00053 µM	0.18	–	–
O=C(O)c1ccc(-c2noc(-c3cc4c(Cl)ccc(Cl)c4o3)n2)cc1 [BHBA-011, 4-(5-(4,7-Dichlorobenzofuran-2-yl)-1,2,4-oxadiazol-3-yl)benzoic acid]	0.0043 µM	0.026 µM	–	0.014 µM	–	–	–
O=C(O)c1ccc(-c2noc(-c3cc4c(Cl)ccc(Cl)c4o3)n2)c(Cl)c1 [BHBA-012, 3-Chloro-4-(5-(4,7-dichlorobenzofuran-2-yl)-1,2,4-oxadiazol-3-yl)benzoic acid]	0.017 µM	0.067 µM	4	0.017 µM	1	–	–
Cc1cc(-c2noc(-c3cc4c(Cl)ccc(Cl)c4o3)n2)ccc1C(=O)O [BHBA-013, 2-Methyl-4-(5-(4,7-dichlorobenzofuran-2-yl)-1,2,4-oxadiazol-3-yl)benzoic acid]	0.016 µM	0.14 µM	–	0.11 µM	–	–	–
O=C(O)c1ccc(-c2noc(-c3cc4c(Cl)ccc(Cl)c4o3)n2)cc1F [BHBA-014, 2-Fluoro-4-(5-(4,7-dichlorobenzofuran-2-yl)-1,2,4-oxadiazol-3-yl)benzoic acid]	0.002 µM	0.012 µM	–	0.011 µM	–	–	–
Cc1ccc(Cl)c2oc(-c3nc(-c4ccc(C(=O)O)cc4)no3)cc12 [BHBA-015, 4-(5-(7-Chloro-4-methylbenzofuran-2-yl)-1,2,4-oxadiazol-3-yl)benzoic acid]	0.0029 µM	0.023 µM	–	0.012 µM	–	–	–
Cc1ccc(Cl)c2cc(-c3nc(-c4ccc(C(=O)O)cc4)no3)oc12 [BHBA-016, 4-(5-(4-Chloro-7-methylbenzofuran-2-yl)-1,2,4-oxadiazol-3-yl)benzoic acid]	0.0027 µM	0.018 µM	7	0.006 µM	2	–	–
Cc1ccc(Cl)c2oc(-c3nc(-c4ccc(C(=O)O)cc4Cl)no3)cc12 [BHBA-017, 3-Chloro-4-(5-(7-chloro-4-methylbenzofuran-2-yl)-1,2,4-oxadiazol-3-yl)benzoic acid]	0.0074 µM	0.056 µM	8	0.018 µM	2.4	–	–
Cc1ccc(Cl)c2cc(-c3nc(-c4ccc(C(=O)O)cc4Cl)no3)oc12 [BHBA-018, 3-Chloro-4-(5-(4-chloro-7-methylbenzofuran-2-yl)-1,2,4-oxadiazol-3-yl)benzoic acid]	0.041 µM	0.15 µM	–	0.14 µM	–	–	–
O=C(O)c1ccc(-c2noc(-c3cc4c(C(F)(F)F)ccc(F)c4o3)n2)cc1 [BHBA-019, 4-(5-(7-Fluoro-4-(trifluoromethyl)benzofuran-2-yl)-1,2,4-oxadiazol-3-yl)benzoic acid]	0.0025 µM	0.019 µM	7.6	0.0053 µM	2	–	–
O=C(O)c1ccc(-c2noc(-c3cc4c(C(F)(F)F)ccc(F)c4o3)n2)c(Cl)c1 [BHBA-020, 3-Chloro-4-(5-(7-fluoro-4-(trifluoromethyl)benzofuran-2-yl)-1,2,4-oxadiazol-3-yl)benzoic acid]	0.008 µM	0.06 µM	–	0.023 µM	–	–	–
Cc1ccc(C)c2sc(-c3nc(-c4ccc(C(=O)O)cc4)no3)cc12 [BHBA-021, 4-(5-(4,7-Dimethylbenzo[b]thiophen-2-yl)-1,2,4-oxadiazol-3-yl)benzoic acid]	0.0034 µM	0.03 µM	9	0.0063 µM	2	–	–
Cc1ccc(C)c2sc(-c3nc(-c4ccc(C(=O)O)cc4Cl)no3)cc12 [BHBA-022, 3-Chloro-4-(5-(4,7-dimethylbenzo[b]thiophen-2-yl)-1,2,4-oxadiazol-3-yl)benzoic acid]	0.016 µM	0.077 µM	5	0.018 µM	1.1	–	–
Cc1ccc(C)c2oc(-c3nc(-c4ccc(C(=O)O)cc4)no3)nc12 [BHBA-023, 4-(5-(4,7-Dimethylbenzo[d]oxazol-2-yl)-1,2,4-oxadiazol-3-yl)benzoic acid]	–	–	–	0.083 µM	–	–	–
Cc1ccc(C)c2oc(-c3nc(-c4ccc(C(=O)O)cc4Cl)no3)nc12 [BHBA-024, 3-Chloro-4-(5-(4,7-dimethylbenzo[d]oxazol-2-yl)-1,2,4-oxadiazol-3-yl)benzoic acid]	0.024 µM	0.18 µM	7.5	0.047 µM	2	–	–
Cc1cc(-c2noc(-c3nc4c(C)ccc(C)c4o3)n2)ccc1C(=O)O [BHBA-025, 4-(5-(4,7-Dimethylbenzo[d]oxazol-2-yl)-1,2,4-oxadiazol-3-yl)-2-methylbenzoic acid]	0.041 µM	0.15 µM	–	0.14 µM	–	–	–
Cc1ccc(C)c2oc(-c3nc(-c4ccc(C(=O)O)c(F)c4)no3)nc12 [BHBA-026, 4-(5-(4,7-Dimethylbenzo[d]oxazol-2-yl)-1,2,4-oxadiazol-3-yl)-2-fluorobenzoic acid]	0.013 µM	0.047 µM	–	0.077 µM	–	–	–
Cc1ccc(C)c2sc(-c3nc(-c4ccc(C(=O)O)cc4)no3)nc12 [BHBA-027, 4-(5-(4,7-Dimethylbenzo[d]thiazol-2-yl)-1,2,4-oxadiazol-3-yl)benzoic acid]	0.009 µM	0.061 µM	6.7	0.025 µM	2.7	–	–
Cc1ccc(C)c2oc(-c3noc(-c4ccc(C(=O)O)cc4)n3)cc12 [BHBA-028, 4-(3-(4,7-Dimethylbenzofuran-2-yl)-1,2,4-oxadiazol-5-yl)benzoic acid]	0.0082 µM	0.026 µM	3	0.0083 µM	1	–	–
Cc1cc(C(=O)O)ccc1-c1nc(-c2cc3c(C)ccc(C)c3o2)no1 [BHBA-029, 4-(3-(4,7-Dimethylbenzofuran-2-yl)-1,2,4-oxadiazol-5-yl)-3-methylbenzoic acid]	0.014 µM	0.21 µM	15	0.019 µM	1.3	–	–
Cc1ccc(C)c2oc(-c3noc(-c4ccc(C(=O)O)cc4F)n3)cc12 [BHBA-030, 4-(3-(4,7-Dimethylbenzofuran-2-yl)-1,2,4-oxadiazol-5-yl)-3-fluorobenzoic acid]	0.01 µM	0.058 µM	5.8	0.018 µM	1.8	–	–
